Experimental data: US7494996B2 (priority 2000, dated 2009)

Tests used:
Sphaerotheca fuliginea = assay: Cucumber Powdery Mildew (CPM) protectant test in the greenhouse; type: in vivo; conditions: 300 g/ha, 100 is total disease control, 0 is no disease control
Method in brief: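 Protectant format: one day after spraying with test compound (A/M/W 1:1:2), cotyledon-plus-one-leaf cucumber plants were misted with Sphaerotheca spores at 2×10^5/ml. Greenhouse disease development; percent control scored at day 7 (100 = total, 0 = none).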

Pyricularia oryzae = assay: whole plant or invertebrate; type: in vivo; conditions: protectant, 300 g/ha, greenhouse; 100 is total disease control, 0 is no disease control
Southern Armyworm = assay: Protocol 1 Southern Armyworm (AW) foliar spray test; type: in vivo, Spodoptera eridania
Experimental: (§1) A test solution containing 1250 parts per million (ppm) was prepared by dissolving the test compound in […] of a second solvent (acetone: water, 1:1) to give an acetone:water: methanol system of 50: 40:10.
(§2) The enclosed spraying chamber consisted of a single spray nozzle mounted on a boom moving at a fixed speed and distance over stationary targets. The vertical distance from the nozzle tip to the targets was adjusted to give rates varying from 150 g/ha to 600 g/ha
Individual fully expanded primary lima bean (Phaseolus limensis) leaves were placed bottom side up on moistened pieces of filter paper in Petri dishes. The leaves were sprayed with the test solutions and allowed to dry. The dishes were infested with 5 third instar larvae of the southern armyworm, covered with the lids, and held at 27° C. Armyworm control was rated by visual inspection after 48 hours. […] A rating of 0 indicated no dead larvae and normal feeding. Intermediate control was indicated by intermediate ratings.

Mexican Bean Beetle = assay: Protocol 1 Mexican Bean Beetle (BB) foliar spray test; type: in vivo, Epilachna verivestis; conditions: control rated after 48 hours (100 = all larvae dead)
Experimental: as §1, §2
Individual fully expanded primary lima bean (Phaseolus limensis) leaves were placed bottom side up on moistened pieces of filter paper in Petri dishes. The leaves were sprayed with the test solutions and allowed to dry. The dishes were infested with 5 third instar larvae of the mexican bean beetle, covered with the lids, and held at 27° C. Bean beetle control was rated by visual inspection after 48 hours. […] A rating of 0 indicated no dead larvae and normal feeding. Intermediate control was indicated by intermediate ratings.

Two-Spotted Spider Mite = assay: Protocol 1 Two-Spotted Spider Mite (MTA) foliar spray test; type: in vivo, Tetranychus urticae; conditions: percentage of mites killed 1-day post-treatment
Experimental: as §1, §2
A pad of moistened cotton was placed in a Petri dish. A 1-inch square section cut from a fully expanded primary lima bean (Phaseolus limensis) leaf was positioned bottom side up on the moist cotton. The leaf square was infested with approximately 50 adult female mites. The dishes were sprayed with the test solutions and held at 27° C. for mortality determination 1-day post-treatment. The percentage of mites killed were rated from 100% (all dead) to 0% (all alive).

## O=c1cnc(-c2ccc(Cl)cc2)nn1CC(F)(F)F [Compound 233]
Sphaerotheca fuliginea
  Cucumber Powdery Mildew (CPM) protectant fungicide data, percent control: 80 percent control
Pyricularia oryzae
  Rice Blast (RB) protectant fungicide data, percent control: 100 percent control
Southern Armyworm; Protocol 1, DOSE 300
  AW: 50
Mexican Bean Beetle; Protocol 1, DOSE 300
  BB: 75
Two-Spotted Spider Mite; Protocol 1, DOSE 300
  MTA: 0%

## O=c1cnc(-c2ccc(Cl)cc2)nn1C1CCCCC1 [Compound 256]
Pyricularia oryzae
  Rice Blast (RB) protectant fungicide data, percent control: 95 percent control
Southern Armyworm; Protocol 1, DOSE 150
  AW: 0
Mexican Bean Beetle; Protocol 1, DOSE 150
  BB: 0
Two-Spotted Spider Mite; Protocol 1, DOSE 150
  MTA: 90%

## O=c1cnc(-c2cc(Cl)cc(Cl)c2)nn1CC(F)(F)F [Compound 248]
Sphaerotheca fuliginea
  Cucumber Powdery Mildew (CPM) protectant fungicide data, percent control: 80 percent control
Pyricularia oryzae
  Rice Blast (RB) protectant fungicide data, percent control: 100 percent control
Southern Armyworm; Protocol 1, DOSE 150
  AW: 0
Mexican Bean Beetle; Protocol 1, DOSE 150
  BB: 0
Two-Spotted Spider Mite; Protocol 1, DOSE 150
  MTA: 100%

## Cc1ccc(C2=NN(CC(F)(F)F)C(=O)CN2)cc1 [Compound 41]
Sphaerotheca fuliginea
  Cucumber Powdery Mildew (CPM) protectant fungicide data, percent control: 50 percent control
Pyricularia oryzae
  Rice Blast (RB) protectant fungicide data, percent control: 100 percent control
Southern Armyworm; Protocol 1, DOSE 300
  AW: 0
Mexican Bean Beetle; Protocol 1, DOSE 300
  BB: 50
Two-Spotted Spider Mite; Protocol 1, DOSE 300
  MTA: 0%

## O=c1cnc(-c2cccc(Cl)c2)nn1CC(F)(F)F [Compound 245]
Sphaerotheca fuliginea
  Cucumber Powdery Mildew (CPM) protectant fungicide data, percent control: 0 percent control
Pyricularia oryzae
  Rice Blast (RB) protectant fungicide data, percent control: 99 percent control
Southern Armyworm; Protocol 1, DOSE 300
  AW: 100
Mexican Bean Beetle; Protocol 1, DOSE 300
  BB: 100
Two-Spotted Spider Mite; Protocol 1, DOSE 300
  MTA: 100%

## Cc1c(Cl)cc(-c2ncc(=O)n(CC(F)(F)F)n2)cc1Cl [Compound 253]
Sphaerotheca fuliginea
  Cucumber Powdery Mildew (CPM) protectant fungicide data, percent control: 50 percent control
Pyricularia oryzae
  Rice Blast (RB) protectant fungicide data, percent control: 100 percent control
Southern Armyworm; Protocol 1, DOSE 150
  AW: 0
Mexican Bean Beetle; Protocol 1, DOSE 150
  BB: 0
Two-Spotted Spider Mite; Protocol 1, DOSE 150
  MTA: 100%

## CN1N=C(c2ccc(Cl)cc2)NCC1=O [Compound 27]
Sphaerotheca fuliginea
  Cucumber Powdery Mildew (CPM) protectant fungicide data, percent control: 99 percent control
Pyricularia oryzae
  Rice Blast (RB) protectant fungicide data, percent control: 80 percent control
Southern Armyworm; Protocol 1, DOSE 300
  AW: 0
Mexican Bean Beetle; Protocol 1, DOSE 300
  BB: 75
Two-Spotted Spider Mite; Protocol 1, DOSE 300
  MTA: 0%

## COC1NC(c2ccc(Cl)cc2)=NN(CC(F)(F)F)C1=O (centres unmarked) [Compound 26]
Sphaerotheca fuliginea
  Cucumber Powdery Mildew (CPM) protectant fungicide data, percent control: 95 percent control
Pyricularia oryzae
  Rice Blast (RB) protectant fungicide data, percent control: 100 percent control
Southern Armyworm; Protocol 1, DOSE 300
  AW: 0
Mexican Bean Beetle; Protocol 1, DOSE 300
  BB: 50
Two-Spotted Spider Mite; Protocol 1, DOSE 300
  MTA: 0%

## O=c1cnc(Cc2ccccc2)nn1CC(F)(F)F [Compound 249]
Sphaerotheca fuliginea
  Cucumber Powdery Mildew (CPM) protectant fungicide data, percent control: 0 percent control
Pyricularia oryzae
  Rice Blast (RB) protectant fungicide data, percent control: 85 percent control
Southern Armyworm; Protocol 1, DOSE 150
  AW: 100
Mexican Bean Beetle; Protocol 1, DOSE 150
  BB: 0
Two-Spotted Spider Mite; Protocol 1, DOSE 150
  MTA: 90%

## CCCCN1N=C(c2ccc(Cl)cc2)NCC1=O [Compound 50]
Sphaerotheca fuliginea
  Cucumber Powdery Mildew (CPM) protectant fungicide data, percent control: 80 percent control
Pyricularia oryzae
  Rice Blast (RB) protectant fungicide data, percent control: 100 percent control
Southern Armyworm; Protocol 1, DOSE 150
  AW: 0
Mexican Bean Beetle; Protocol 1, DOSE 150
  BB: 0
Two-Spotted Spider Mite; Protocol 1, DOSE 150
  MTA: 75%

## CN1CC(=O)N(CC(F)(F)F)N=C1c1ccccc1 [Compound 34]
Southern Armyworm; Protocol 1, DOSE 300
  AW: 0
Mexican Bean Beetle; Protocol 1, DOSE 300
  BB: 75
Two-Spotted Spider Mite; Protocol 1, DOSE 300
  MTA: 0%

## O=C1CNC(Cc2ccccc2)=NN1CC(F)(F)F [Compound 44]
Sphaerotheca fuliginea
  Cucumber Powdery Mildew (CPM) protectant fungicide data, percent control: 0 percent control
Pyricularia oryzae
  Rice Blast (RB) protectant fungicide data, percent control: 85 percent control
Southern Armyworm; Protocol 1, DOSE 150
  AW: 75
Mexican Bean Beetle; Protocol 1, DOSE 150
  BB: 0
Two-Spotted Spider Mite; Protocol 1, DOSE 150
  MTA: 0%

## CCCC(C)n1nc(-c2ccc(Cl)cc2)ncc1=O (centres unmarked) [Compound 254]
Sphaerotheca fuliginea
  Cucumber Powdery Mildew (CPM) protectant fungicide data, percent control: 0 percent control
Pyricularia oryzae
  Rice Blast (RB) protectant fungicide data, percent control: 95 percent control
Southern Armyworm; Protocol 1, DOSE 150
  AW: 0
Mexican Bean Beetle; Protocol 1, DOSE 150
  BB: 100
Two-Spotted Spider Mite; Protocol 1, DOSE 150
  MTA: 100%

## CC(C)(C)n1nc(-c2ccc(Cl)cc2)ncc1=O [Compound 241]
Sphaerotheca fuliginea
  Cucumber Powdery Mildew (CPM) protectant fungicide data, percent control: 0 percent control
Pyricularia oryzae
  Rice Blast (RB) protectant fungicide data, percent control: 50 percent control
Southern Armyworm; Protocol 1, DOSE 300
  AW: 0
Mexican Bean Beetle; Protocol 1, DOSE 300
  BB: 0
Two-Spotted Spider Mite; Protocol 1, DOSE 300
  MTA: 100%

## O=c1cnc(-c2ccc(Cl)cc2)nn1Cc1ccccc1 [Compound 240]
Sphaerotheca fuliginea
  Cucumber Powdery Mildew (CPM) protectant fungicide data, percent control: 75 percent control
Pyricularia oryzae
  Rice Blast (RB) protectant fungicide data, percent control: 95 percent control
Southern Armyworm; Protocol 1, DOSE 300
  AW: 50
Mexican Bean Beetle; Protocol 1, DOSE 300
  BB: 75
Two-Spotted Spider Mite; Protocol 1, DOSE 300
  MTA: 100%

## COc1cccc(-c2ncc(=O)n(CC(F)(F)F)n2)c1 [Compound 252]
Sphaerotheca fuliginea
  Cucumber Powdery Mildew (CPM) protectant fungicide data, percent control: 0 percent control
Pyricularia oryzae
  Rice Blast (RB) protectant fungicide data, percent control: 85 percent control
Southern Armyworm; Protocol 1, DOSE 150
  AW: 0
Mexican Bean Beetle; Protocol 1, DOSE 150
  BB: 100
Two-Spotted Spider Mite; Protocol 1, DOSE 150
  MTA: 50%

## O=C1CNC(c2cc(Cl)cc(Cl)c2)=NN1CC(F)(F)F [Compound 43]
Sphaerotheca fuliginea
  Cucumber Powdery Mildew (CPM) protectant fungicide data, percent control: 80 percent control
Pyricularia oryzae
  Rice Blast (RB) protectant fungicide data, percent control: 99 percent control
Southern Armyworm; Protocol 1, DOSE 150
  AW: 50
Mexican Bean Beetle; Protocol 1, DOSE 150
  BB: 0
Two-Spotted Spider Mite; Protocol 1, DOSE 150
  MTA: 0%

## Cn1nc(-c2ccc(Cl)cc2)ncc1=O [Compound 238]
Sphaerotheca fuliginea
  Cucumber Powdery Mildew (CPM) protectant fungicide data, percent control: 90 percent control
Pyricularia oryzae
  Rice Blast (RB) protectant fungicide data, percent control: 50 percent control
Southern Armyworm; Protocol 1, DOSE 300
  AW: 0
Mexican Bean Beetle; Protocol 1, DOSE 300
  BB: 75
Two-Spotted Spider Mite; Protocol 1, DOSE 300
  MTA: 100%

## O=C1CNC(c2cccc(Cl)c2)=NN1CC(F)(F)F [Compound 37]
Sphaerotheca fuliginea
  Cucumber Powdery Mildew (CPM) protectant fungicide data, percent control: 75 percent control
Pyricularia oryzae
  Rice Blast (RB) protectant fungicide data, percent control: 95 percent control
Southern Armyworm; Protocol 1, DOSE 300
  AW: 100
Mexican Bean Beetle; Protocol 1, DOSE 300
  BB: 75
Two-Spotted Spider Mite; Protocol 1, DOSE 300
  MTA: 75%

## O=C1CNC(c2ccccn2)=NN1CC(F)(F)F [Compound 52]
Sphaerotheca fuliginea
  Cucumber Powdery Mildew (CPM) protectant fungicide data, percent control: 0 percent control
Pyricularia oryzae
  Rice Blast (RB) protectant fungicide data, percent control: 50 percent control
Southern Armyworm; Protocol 1, DOSE 150
  AW: 0
Mexican Bean Beetle; Protocol 1, DOSE 150
  BB: 0
Two-Spotted Spider Mite; Protocol 1, DOSE 150
  MTA: 100%

## CCC(C)n1nc(C2CCCCC2)ncc1=O (centres unmarked) [Compound 255]
Sphaerotheca fuliginea
  Cucumber Powdery Mildew (CPM) protectant fungicide data, percent control: 0 percent control
Pyricularia oryzae
  Rice Blast (RB) protectant fungicide data, percent control: 50 percent control
Southern Armyworm; Protocol 1, DOSE 150
  AW: 0
Mexican Bean Beetle; Protocol 1, DOSE 150
  BB: 90
Two-Spotted Spider Mite; Protocol 1, DOSE 150
  MTA: 100%

## C=CCn1nc(-c2ccc(Cl)cc2)ncc1=O [Compound 236]
Sphaerotheca fuliginea
  Cucumber Powdery Mildew (CPM) protectant fungicide data, percent control: 90 percent control
Pyricularia oryzae
  Rice Blast (RB) protectant fungicide data, percent control: 99 percent control
Southern Armyworm; Protocol 1, DOSE 300
  AW: 0
Mexican Bean Beetle; Protocol 1, DOSE 300
  BB: 100
Two-Spotted Spider Mite; Protocol 1, DOSE 300
  MTA: 100%

## Cc1ccc(-c2ncc(=O)n(CC(F)(F)F)n2)cc1 [Compound 247]
Sphaerotheca fuliginea
  Cucumber Powdery Mildew (CPM) protectant fungicide data, percent control: 80 percent control
Pyricularia oryzae
  Rice Blast (RB) protectant fungicide data, percent control: 100 percent control
Southern Armyworm; Protocol 1, DOSE 300
  AW: 0
Mexican Bean Beetle; Protocol 1, DOSE 300
  BB: 90
Two-Spotted Spider Mite; Protocol 1, DOSE 300
  MTA: 0%

## CCn1nc(-c2ccc(Cl)cc2)ncc1=O [Compound 235]
Sphaerotheca fuliginea
  Cucumber Powdery Mildew (CPM) protectant fungicide data, percent control: 80 percent control
Pyricularia oryzae
  Rice Blast (RB) protectant fungicide data, percent control: 90 percent control
Southern Armyworm; Protocol 1, DOSE 300
  AW: 0
Mexican Bean Beetle; Protocol 1, DOSE 300
  BB: 100
Two-Spotted Spider Mite; Protocol 1, DOSE 300
  MTA: 100%

## CCC(C)N1N=C(C2CCCCC2)NCC1=O (centres unmarked) [Compound 48]
Sphaerotheca fuliginea
  Cucumber Powdery Mildew (CPM) protectant fungicide data, percent control: 0 percent control
Pyricularia oryzae
  Rice Blast (RB) protectant fungicide data, percent control: 50 percent control
Southern Armyworm; Protocol 1, DOSE 150
  AW: 0
Mexican Bean Beetle; Protocol 1, DOSE 150
  BB: 0
Two-Spotted Spider Mite; Protocol 1, DOSE 150
  MTA: 75%
